# In patent US20220062340A1, “IMMUNOTHERAPEUTIC METHODS AND COMPOSITIONS” (KING'S COLLEGE LONDON, priority 2018, published 2022):
# What was measured:
# [1] = system: integrin α4β7 on Treg surface; experiment: Induction of integrin α4β7 on bulk Treg surface by RARα agonists (FIG. 6); type: cell-based; conditions: bulk CD4+CD25+CD127− Tregs, 12 days stimulation, reducing agonist concentrations
# Description: Bulk Tregs (CD4+CD25+CD127−) Tregs (50,000 per well) were expanded in vitro with reducing concentrations of the agonists. Culture conditions: 2 aCD3/aCD28 beads/cell, 1000IU/mL IL-2, 0.1 nM Rapamycin+Agonist in X-vivo 15. Following 12 days stimulation, cells were stained for CD4, CD25, CD127, FOXP3, Integrin a4, Integrin b7, CD15s, CD161 and acquired on a BD symphony flow cytometer. Data was analysed in Flowjo and Prism.
# FOXP3 in Tregs = experiment: FOXP3 expression of ex vivo expanded Tregs; type: cell-based, human; conditions: Tregs expanded in the presence of the agonist
# Description: (§1) FACS-sorted Treg populations were plated at 1×10^6 or 0.5×10^6 in X-VIVO-15 medium and activated with anti-CD3/anti-CD28 coated beads (Dynabeads®, Invitrogen, Paisley, UK) at 1:1 bead: cell ratio. Rapamycin was added at day 0 of culture at a final concentration of 100 nM/L +/−ATRA 1 nM/L or RAR568 1 nM/L. Next, 1,000 IU/ml recombinant human IL-2 (rhlL-2) (Proleukin®, Novartis, Camberley, UK) was added at day 5 of culture. Cells were re-stimulated every 10-12 days and expanded for a total of 24-30 days. The phenotype and suppressive ability were assessed at the end of the culture period.
# (§2) Flow cytometry panels have been designed to assess the subtypes of regulatory T cells in patients with CD as well as their expression of gut homing molecules. Gating was performed based on natural populations when assessing for CD4^+CD25^highCD127low populations, as well as for CD45RA^+ Treg populations. Additionally, to minimize bias in the assessment of expression of gut homing markers and transcription factors, a fluorochrome minus one (FMO) panel was added for each marker of interest in each experiment that was performed.
# Ex vivo expanded Tregs = experiment: IL-17 and IFNγ production under pro-inflammatory cytokine challenge (ELISA); type: cell-based, human; conditions: Tregs expanded ex vivo in the presence of the agonist, FIG. 2f
# Description: Cytokine concentrations were measured using the Ready-SET-Go sandwich ELISA kits from eBioscience.
# Ex vivo expanded Tregs were activated with CD3/CD28 beads at a 1:20 ratio and cultured at 10^6cells/m1 in X-VIVO for 5 days at 37° C./5% CO2, supplemented with the following cytokine cocktail: A) IL-2 (10 IU/mL, Proleukin); (B) IL-2, IL-1 (10 ng/mL), IL-6 (4 ng/mL) and transforming growth factor-β (TGF-β (5 ng/mL), IL-21 (25 ng/mL), IL-23 (25 ng/mL) (all R&D Systems). Supernatant IL-17 and interferon gamma (IFNγ) concentrations were measured by ELISA.
# Effector T cells (Teff) = experiment: Treg suppression assay (proliferation of CFSE-labelled Teff); type: cell-based, human; conditions: lowest (8:1) Teff:Treg titration, FIG. 2e
# Description: Effector T cells (Teff) were labelled with carboxyfluorescein succinimidyl ester (CFSE, Invitrogen) according to standard protocols. Cells were washed with phosphate buffered saline (PBS) to remove excess protein. Cells were then incubated with a 1 μM/L CFSE solution in the dark at room temperature for 4 minutes. The reaction was then quenched with 9 ml of complete medium.
# Teff were activated with anti-CD3/anti-CD28 micro beads at a bead: Teff ratio of 0.02:1. 1×10^5 Teff were then cultured either alone or with Tregs in serial dilutions. The ratios of Teff: Treg were 1:1, 2:1, 4:1, and 8:1. This was done in X-VIVO-15 and proliferation rates were assessed by flow cytometry after 5 days of incubation.
# Percentage suppression (S) of proliferation was calculated using the following formula:
# Where c=percentage of proliferating precursors in the presence of Tregs and d=percentage of proliferating precursors in the absence of Tregs.
# integrin β7 on Tregs = experiment: Dose response of integrin β7 induction on expanded Tregs; type: cell-based; conditions: Homo sapiens; Tregs in in vitro culture, FIG. 2c; read-out: EC50 to induce the expression of integrin β7
# Description: as §1, §2
# integrin α4β7 on Tregs = experiment: α4β7 expression on ex vivo expanded CD45RA+ Tregs from CD patients (flow cytometry); type: cell-based, human; conditions: CD4+CD25hiCD127loCD45RA+ Tregs cultured with rapamycin and high dose IL-2 plus the agonist; mean ± SD
# Description: “Complete X-VIVO-15” (Lonza, Walkersville, MD) was used for ex vivo Treg expansion, Treg cytokine challenge experiments and Treg suppression assays. This was supplemented with 100 nM or 10 nM Rapamycin and all-trans retinoic acid (ATRA) 2 μM or 1 nM, or Rapamycin and RAR568 1 nM.
# as §1
# Flow cytometry panels have been designed to assess the subtypes of regulatory T cells in patients with CD as well as their expression of gut homing molecules. Gating was performed based on natural populations when assessing for CD4^+CD25^highCD127low populations, as well as for CD45RA^+ Treg populations. Additionally, to minimize bias in the assessment of expression of gut homing markers and transcription factors, a fluorochrome minus one (FMO) panel was added for each marker of interest in each experiment that was performed. […]
# Tregs from CD patients = experiment: Gene array of expanded Tregs from CD patients; type: cell-based, human
# Description: Gene array analyses were carried out using Partek® software with a 1-way ANOVA to assess for differential gene expression.
# 1) RNA extraction was performed using Qiagen RNEasy mini/micro kits as per manufacturer's instructions. The samples were checked for RNA quality using the Agilent 2100 Bioanalyzer and quantified using the Nanodrop (ND-1000 Spectrophotometer). Samples which passed QC (RIN>8) were chosen such that input amount of each sample was 3 ng.
# 2) SPIA cDNA was generated using the “Ovation Pico WTA System V2” kit from Nugen, following the manufacturer's instructions.
# 3) The SPIA cDNA was subjected to a QC check to assess quality (Agilent 2100 Bioanalyzer) and quantity (Nanodrop ND-1000 Spectrophotometer) for the next stage.
# 4) The SPIA cDNA was fragmented and Biotin-labelled using the “Encore Biotin Module” from Nugen according to the manufacturer's instructions and passed through QC checks to assess fragmentation size (Agilent 2100 Bioanalyzer).
# 6) Hybridization cocktails were prepared of the fragmented labelled-cDNA according to Nugen's recommendations and hybridized at 45° C. overnight in an oven.
# 7) The arrays were washed and stained using wash protocol FS450_0002 (Affymetrix protocol recommended for Human Gene 2.0 Arrays on the GeneChip Fluidics station 450.
# 8) The arrays were scanned using the Affymetrix GeneChip Scanner.
# Gene expression analyses were performed on Tregs from CD patients expanded in the presence of Rapa+ATRA, Rapa+RAR568 or rapamycin only (n=3 in each group). […] CD161 has previously been described as a marker of T helper (Th) 17-like Tregs^32. This was not observed in the RAR568-treated group. […] IL-18 Receptor 1 and STAT4 are responsible for Th1 lineage commitment and IFNγ production, both have been independently identified as IBD disease related polymorphisms on GWAS^33-36. CD38 has been identified as a marker associated with mature T cells, signaling reduced proliferation, but an increased ability to produce pro-inflammatory cytokines such as IFNγ^37. Ligation of GPR174 negatively affects Treg accumulation and function^38. No clear difference in transcripts for canonical pathways were identified when ATRA treated cells were compared with RAR568 treated cells.
# To assess for off target RARγ effects, we compared the gene expression profiles of RAR568 and ATRA treated cells to a published dataset of RARγ target genes^39. […] Given the efficacy at inducing α4β7 and lack of off target effects, RAR568 fulfilled the target product profile for an agent that could be used for ex vivo Treg expansion for cell-based therapy purposes. Therefore, we probed this effect of RAR568 on Tregs from CD patients in functional in vitro and in vivo trafficking assays.
# MAdCAM-1 = experiment: In-vitro trafficking assay, MAdCAM-1 coated Ibidi flow chamber; type: cell-based, human; conditions: cells treated with monoclonal antibody to integrin α4β7, FIG. 4
# Description: Ibidi (Martinsreid, Germany) μ-Slides VI″ were coated with recombinant human MAdCAM-1 (R&D Systems, Minneapolis, Minn.), at a concentration of 10μg/ml and incubated overnight. Cells from two CD patients that had previously undergone ex vivo expansion under two parallel conditions (Rapa and Rapa+RAR568) and had been frozen in liquid nitrogen were defrosted and rested overnight. Rested cells were then activated with rhCCL25 (R&D systems) and passed through the coated Ibidi flow chamber at a rate of 1 dyne/cm^2. The total number of cells, as well as those rolling, adherent and crawling was quantified from six randomly selected fields of view per treatment.
# In order to assess the physiological relevance of the induction of α4β7 expression by RAR568, treated and untreated Tregs from CD patients were passed through a MAdCAM-1 coated flow chamber (FIG. 10). The total number of cells adherent to the chamber, as well as their stages of rolling, adhesion and crawling, were compared to cells that were expanded under standard conditions.
compound,measurement,setting,value
"CC1(C)CCC(C)(C)c2cc(NC(=O)c3ccc(C(=O)O)cc3)ccc21 [AM80, tamibarotene]",induction of integrin α4β7 on Treg surface,[1],comparable effects
CC1(C)CCC(C)(C)c2cc(C(=O)Nc3ccc(C(=O)O)cc3)ccc21 [AM580],induction of integrin α4β7 on Treg surface,[1],comparable effects
"CC1=C(/C=C/C(C)=C/C=C/C(C)=C/C(=O)O)C(C)(C)CCC1 [ATRA, all-trans retinoic acid, reference compound]",FOXP3 expression of expanded Tregs,FOXP3 in Tregs; mean ± SD,86.15±19.88%
same,"FOXP3 expression, range",FOXP3 in Tregs; range,40.2-99.7
same,IFNγ production following pro-inflammatory cytokine challenge,Ex vivo expanded Tregs,did not produce
same,IL-17 production following pro-inflammatory cytokine challenge,Ex vivo expanded Tregs,did not produce
same,Suppressive ability of expanded Tregs,Effector T cells (Teff),became less suppressive at the lowest titration
same,EC50,integrin β7 on Tregs,1.5 nM
same,α4β7 expression of expanded Tregs,integrin α4β7 on Tregs,74.21±25.89
same,transcripts for CD161,"Tregs from CD patients; compared to rapamycin only, n=3",significant increase
same,"increase in the expression of STAT4, IL18R1, CD38 and GPR174","Tregs from CD patients; compared to rapamycin only, p<0.05, FIG. 3a",> 2 fold
same,RARγ target genes upregulated,"Tregs from CD patients; off target RARγ effects, compared to published dataset, FIG. 3b",Eleven
Vedolizumab: monoclonal antibody to integrin α4β7,cell migration of RAR568-treated Tregs in MAdCAM-1 coated flow chamber,MAdCAM-1,All stages of cell migration were blocked
